The species entered for this experiment is Homo sapiens. As to the kind of experiment: Cytotoxicity against human ER negative MCF10CA1a cells assessed as growth inhibition after 3 days by [3H]thymidine incorporation assay. The format is functional, cell-based. The note with it: tested as the 2H-labelled form. For orientation: Uptake of a labelled nucleoside into DNA is a usual measure of proliferation.

Calls of active or inactive are those of the source. The rule behind the calls is not given here.

With `CC(C)(O)CCCC(CCCC(C)(C)O)[C@H]1CC[C@H]2/C(=C/C=C3C[C@@H](O)C[C@H](O)C3)CCC[C@]12C`, the “growth inhibition (GI)” value is “Active”.

For `C=C1/C(=C\C=C2/CCC[C@]3(C)[C@@H](C(CCCC(C)(C)O)CCCC(C)(C)O)CC[C@@H]23)C[C@@H](O)C[C@@H]1O`, the “growth inhibition (GI)” value was “Active”.

(Values after ChEMBL document CHEMBL2346525, “Diastereotopic and deuterium effects in gemini” (J Med Chem, 2013).)
